Source: patent US20030032579A1, “Therapeutic use of selective PDE10 inhibitors” (Pfizer Inc., priority 2001, published 2003)
Values joined by “and” are separate entries in the source; they are usually repeats but may differ in a detail not shown here. Identical values can stand only once.

How the values were obtained:
male CD rats = assay: Catalepsy (bar test), alone and with haloperidol; assay type: in vivo, rat; details: s.c.; for catalepsy when administered alone: 30 min after dosing, papaverine up to 32 mg/kg
Text: This animal model is used to analyze the effects of compounds on basal ganglia output. […] For some experiments, this was immediately followed by haloperidol. Thirty minutes after drug administration(s), the degree of catalepsy was quantified by placing the animals forepaws on an elevated (10 cm) bar (1 cm diameter) and determining the latency to remove both forepaws from the bar with a latency cutoff of 30 sec. Latencies were ranked within each treatment group for comparison by a Kruskall-Wallace analysis of variance. Post hoc analysis was by the Mann Whitney U test.

medium spiny neurons [1] = assay: cAMP accumulation in forskolin-stimulated medium spiny neuron culture (Example 5); assay type: cell-based, rat
Method: (§1) Medium spiny neuron cultures were prepared as discussed in Example 2 from striata from E17 or E18 rat embryos. The striata were digested with trypsin and the dissociated cells plated on poly-L-omithine/laminin coated plates in Neurobasal medium containing B27 supplement. For assays of cyclic nucleotide formation and CREB phosphorylation, neurons are also supplemented with 50 ng/ml BDNF and used at 6 DIV. At this time, approximately 90% of the cells are of neuronal morphology and 50% stain positively for GABA.
(§2) The PDE inhibitors were differentiated by the potencies with which they potentiated the increase in cAMP versus cGMP (Table 3).

medium spiny neurons [2] = assay: Differentiation of medium spiny neurons to GABA phenotype, Array Scan; assay type: cell-based, rat; details: added at plating, read at 6 DIV
Method: The transcriptional events activated following CREB phosphorylation are involved in the survival and differentiation of neurons. We investigated whether the PDE inhibitors in Table 3 effect the survival and differentiation of the medium spiny neurons. These experiments were conducted using a protocol used by Ventimiglia et al. (see Ventimiglia et al., 1995, supra) to assay the effects of BDNF on these processes in medium spiny neurons. Specifically, the PDE inhibitors were added to the medium spiny neuron culture medium at the time of plating, and then at 6 DIV various parameters related to neuronal survival and differentiation were quantified using the Array Scan System from Cellomics, Inc (Pittsburgh, Pa., USA).
Blue-nuclei; Green-neuron; Red-neuron staining positively for GABA.

[3] = tested on: primary cultures of rat striatal neurons (medium spiny neurons); assay: cAMP accumulation in forskolin-stimulated striatal cultures (Example 2); assay type: cell-based; details: for cAMP EC200: forskolin-stimulated rat striatal cultures, mean ± S.E.M.; for cAMP/cGMP (ratio of EC200 values): rat striatal cultures, Example 2
Method: (§3) The striatal cultures were prepared as previously described (Ventimiglia et al., Eur. J. Neurosci. 7: 213-222, 1995). Briefly, striata (caudate nucleus and putamen) are dissected from E17 rats, were dissociated to produce a single cell suspension and plated at a density of 5×10^4 neurons/well in multiwell plates coated with poly-L-ornithine/laminin. The cells were plated in Neurobasal medium with B27 supplements and BDNF (100 ng/mL). Experiments were typically performed after 4 days in vitro. Medium spiny neurons comprise the majority of cells in these cultures (50 to 60%, as confirmed by GABA immunoreactivity).
(§4) The striatal cells were exposed to phosphodiesterase inhibitors and incubated for twenty minutes at 37 degrees Celsius. When measuring cGMP, the neurons were stimulated with sodium nitroprusside, a nitric oxide source for two minutes following the 20-minute incubation with compound. When measuring cAMP, the neurons were stimulated with forskolin, an activator of adenylate cyclase for the duration of the twenty minute compound incubation. The cells were lysed using a 9:1 combination of cAMP SPA direct screening Assay Buffer (0.05M acetate with 0.01% sodium azide) and Buffer A (133 mg/mL dodecyltrimethylammonium bromide) and the lysates were frozen on dry ice. A cGMP [[…]] or cAMP [[…]] scintillation proximity assay (SPA) system (Amersham code RPA 540 and RPA 559, respectively) was used to detect the concentration of the respective cyclic nucleotide in the cell lysate.
(§5) We therefore examined the effects of the compound under conditions in which cAMP or cGMP synthesis was stimulated with forskolin or the NO donor sodium nitroprusside (SNP), respectively.

[4] = tested on: primary cultures of rat striatal neurons (medium spiny neurons); assay: cGMP accumulation in SNP-stimulated striatal cultures (Example 2); assay type: cell-based; details: for cGMP EC200: SNP-stimulated rat striatal cultures, mean ± S.E.M.
Method: as §3, §4, §5

medium spiny neurons [5] = assay: cGMP accumulation in SNAP-stimulated medium spiny neuron culture (Example 5); assay type: cell-based, rat
Method: as §1, §2

medium spiny neurons [6] = assay: CREB phosphorylation in medium spiny neurons, Western blot; assay type: cell-based, rat; details: Western blotting
Method: as §1
cAMP and cGMP activate protein kinases PKA and PKG, respectively. Both kinases are capable of phosphorylating the transcription regulator CREB. We examined the effects of the selective PDE inhibitors in Table 3 on phosphorylation of CREB as a downstream event in the cyclic nucleotide signaling cascade.

[7] = tested on: primary cultures of rat striatal neurons (medium spiny neurons); assay: cAMP accumulation in forskolin-stimulated striatal cultures (Example 2); assay type: cell-based; details: compound alone, no stimulus
Sprague-Dawley rats = assay: Locomotor activity (shuttle box crossovers), PCP- or amphetamine-stimulated; assay type: in vivo, rat
Method: Adult, male, Sprague-Dawley rats (250-300 g) were obtained from Charles River (Wilmington, Mass.). Locomotor activity was assessed using crossover behavior in commercially available shuttle boxes (Coulbourn Instruments, Allentown, Pa.). Data was collected in 5 minute intervals for 1 hour after drug administration. Animals received either vehicle (5% DMSO, 5% Emulphor, 90% Saline) phencyclidine (PCP, Sigma Chem. Co.) or amphetamine Sulfate (RBI) followed immediately by either vehicle or test compound. Statistical analysis was performed using the Student's t-test.

PDE11 = molecular target: T1, PDE11 (Homo sapiens, UniProt Q9HCR9); assay: PDE inhibition, SPA cyclic nucleotide hydrolysis assay; assay type: biochemical
T1 construct: made in house; host or cells: SF9 cells
Method: In one assay, a substance is screened for inhibition of cyclic nucleotide hydrolysis by the PDE10 and the PDEs from the other gene families. The cyclic nucleotide substrate concentration used in the assay of each individual PDE is ⅓ of the Km concentration, allowing for comparisons of IC50 values across the different enzymes. PDE activity is measured using a Scintillation Proximity Assay (SPA)-based method as previously described (Fawcett et al., 2000). The effect of PDE inhibitors is determined by assaying a fixed amount of enzyme (PDEs 1-11) in the presence of varying substance concentrations and low substrate, such that the IC50 approximates the Ki (cGMP or cAMP in a 3:1 ratio unlabelled to [^3H]-labeled at a concentration of ⅓ Km). The final assay volume is made up to 100 μl with assay buffer [20 mM Tris-HCI pH 7.4, 5 mM MgCl2, 1 mg/ml bovine serum albumin]. […] Plates are re-sealed and shaken for 20 min, after which the beads were allowed to settle for 30 min in the dark and then counted on a TopCount plate reader (Packard, Meriden, Conn.). […]
PDE activity was measured using the assay with yttrium silicate SPA beads described above in the Detailed Description section.

[8] = tested on: primary cultures of rat striatal neurons (medium spiny neurons); assay: cGMP accumulation in SNP-stimulated striatal cultures (Example 2); assay type: cell-based; details: compound alone, no stimulus
PDE9 = molecular target: T2, PDE9 (Homo sapiens, UniProt O76083); assay: PDE inhibition, SPA cyclic nucleotide hydrolysis assay; assay type: biochemical
T2 construct: made in house; host or cells: SF9 cells

PDE10 = molecular target: T3, PDE10 (Rattus norvegicus, UniProt Q9QYJ6); assay: as above; assay type: biochemical
T3 construct: made in house; host or cells: SF9 cells
T3 sequence (Q9QYJ6 1-794): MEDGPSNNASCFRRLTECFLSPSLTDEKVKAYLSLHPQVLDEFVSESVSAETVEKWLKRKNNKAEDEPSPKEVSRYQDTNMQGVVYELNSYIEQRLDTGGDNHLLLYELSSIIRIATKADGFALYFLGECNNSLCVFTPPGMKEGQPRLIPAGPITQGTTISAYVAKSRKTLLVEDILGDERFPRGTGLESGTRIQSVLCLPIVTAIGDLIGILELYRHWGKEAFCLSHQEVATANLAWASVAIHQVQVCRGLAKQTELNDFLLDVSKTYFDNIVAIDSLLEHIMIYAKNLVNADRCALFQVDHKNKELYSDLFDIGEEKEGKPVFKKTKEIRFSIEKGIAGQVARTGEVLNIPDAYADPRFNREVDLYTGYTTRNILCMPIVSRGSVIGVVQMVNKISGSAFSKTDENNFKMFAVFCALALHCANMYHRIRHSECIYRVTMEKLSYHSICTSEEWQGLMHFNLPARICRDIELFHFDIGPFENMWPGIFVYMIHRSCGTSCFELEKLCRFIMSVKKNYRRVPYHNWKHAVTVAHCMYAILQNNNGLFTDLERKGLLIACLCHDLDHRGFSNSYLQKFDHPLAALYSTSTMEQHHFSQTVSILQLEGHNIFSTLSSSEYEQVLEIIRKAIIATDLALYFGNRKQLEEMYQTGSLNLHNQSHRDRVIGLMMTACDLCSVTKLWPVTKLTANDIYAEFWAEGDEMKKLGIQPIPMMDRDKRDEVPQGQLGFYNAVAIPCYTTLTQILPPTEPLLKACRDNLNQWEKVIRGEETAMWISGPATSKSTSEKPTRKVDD

PDE7 = tested on: T4, PDE7; assay: as above; assay type: biochemical, human; details: substrate at 1/3 Km
T4 construct: other: substrate at 1/3 Km
Text: (§6) PDEs 2, 3 and 5, isozymes, including human PDEs, can, for example, be prepared from corpus cavernosum; PDE1, isozymes including human, from cardiac ventricle; and PDE4, isozymes, including human, from skeletal muscle. PDE6 can be prepared, for example, from canine retina. Description of enzyme preparation from native tissue is described, for example, by Boolell, M. et al., Int. J. Impotence Research 8:7-52, 1996, incorporated herein by reference.
(§7) PDEs 7-11 can similarly be prepared from native tissue. Isozymes from the PDEs 7-9 and 11 families can alternatively be generated from full length human recombinant clones transfected into, for example, SF9 cells as described in Fisher, D. A., et al., Biochem. Biophys. Res. Comm. 246, 570-577, 1998; Soderling, S. H. et al., PNAS 96: 7071-7076, 1999; Fisher, D. A. et al., J. Biol. Chem. 273, 15559-15564, 1998b; and Fawcett, L., et al., PNAS 97: 3702-3707, 2000; respectively. PDE10 can also be generated from a rat recombinant clone transfected into SF9 cells (Fujishige et al., European Journal of Biochemistry, Vol. 266, 1118-1127 (1999)). The enzymes are then prepared by FPLC from the soluble fraction of cell lysates as described for PDE6. The aforementioned references are incorporated in their entireties herein by reference. […]

PDE1 = tested on: T5, PDE1; assay: as above; assay type: biochemical, human; details: substrate at 1/3 Km
T5 construct: other: substrate at 1/3 Km
Text: as §6, §7

T2 sequence (O76083 whole entry): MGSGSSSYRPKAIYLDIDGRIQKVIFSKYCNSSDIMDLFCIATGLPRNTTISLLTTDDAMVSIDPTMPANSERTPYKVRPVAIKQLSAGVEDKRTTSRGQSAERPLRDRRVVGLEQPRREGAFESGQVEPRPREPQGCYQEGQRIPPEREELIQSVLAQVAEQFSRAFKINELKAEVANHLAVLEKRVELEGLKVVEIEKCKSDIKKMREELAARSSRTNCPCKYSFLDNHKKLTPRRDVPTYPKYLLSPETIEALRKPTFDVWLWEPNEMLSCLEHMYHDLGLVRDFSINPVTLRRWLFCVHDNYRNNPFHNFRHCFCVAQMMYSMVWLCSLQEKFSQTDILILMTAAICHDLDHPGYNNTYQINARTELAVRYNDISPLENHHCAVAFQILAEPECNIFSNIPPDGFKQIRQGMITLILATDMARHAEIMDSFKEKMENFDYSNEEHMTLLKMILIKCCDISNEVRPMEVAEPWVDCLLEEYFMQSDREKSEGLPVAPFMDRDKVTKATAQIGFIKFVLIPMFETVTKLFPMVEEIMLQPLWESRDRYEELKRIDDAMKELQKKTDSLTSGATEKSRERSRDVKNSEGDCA
T1 sequence (Q9HCR9 445-933): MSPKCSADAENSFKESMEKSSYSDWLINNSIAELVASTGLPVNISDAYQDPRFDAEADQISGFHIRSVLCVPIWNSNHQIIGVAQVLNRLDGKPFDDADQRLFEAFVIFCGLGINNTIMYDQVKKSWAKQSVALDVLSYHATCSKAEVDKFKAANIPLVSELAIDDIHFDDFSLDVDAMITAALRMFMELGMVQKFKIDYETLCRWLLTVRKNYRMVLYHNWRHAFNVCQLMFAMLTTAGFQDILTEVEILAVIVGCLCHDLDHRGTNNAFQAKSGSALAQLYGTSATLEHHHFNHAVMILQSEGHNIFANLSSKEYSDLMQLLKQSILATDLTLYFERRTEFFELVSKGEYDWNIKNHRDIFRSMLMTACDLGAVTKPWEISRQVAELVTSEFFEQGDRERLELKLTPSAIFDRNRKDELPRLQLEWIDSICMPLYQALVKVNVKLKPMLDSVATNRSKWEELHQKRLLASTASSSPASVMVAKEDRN

SMILES: O=C(CCCN1CCC(O)(c2ccc(Cl)cc2)CC1)c1ccc(F)cc1 [haloperidol]
- maximally effective dose for catalepsy (male CD rats): 1 mg/kg
- catalepsy when administered alone (male CD rats): robust catalepsy

SMILES: COc1ccc(C2CNC(=O)C2)cc1OC1CCCC1 (stereo not drawn) [Rolipram]
- effect on accumulation of cAMP stimulated with forskolin (medium spiny neurons [1]; FIG. 3): potentiate the increase
- cAMP EC200 (medium spiny neurons [1]; forskolin-stimulated medium spiny neurons, 6 DIV): 2.0 ± 0.2 µM
- cAMP/cGMP (ratio of EC200 values) (medium spiny neurons [1]; medium spiny neurons, Example 5): 0.03
- change in cAMP level in the absence of a stimulus (medium spiny neurons [1]; no stimulus): no detectable change
- number of GABAergic neurons (medium spiny neurons [2]): no effect
- cAMP EC200 [3]: 2.5 ± 2.0 (3) μM
- cAMP EC200 ([3]; listed as rolipram): 2.5 µM
- cAMP/cGMP (ratio of EC200 values) [3]: 0.09
- cGMP EC200 [4]: 29.2 ± 10.3 (3) μM
- fold higher concentration to double cGMP accumulation than cAMP ([4]; relative to cAMP EC200): 10 fold
- effect on accumulation of cGMP stimulated with SNAP (medium spiny neurons [5]; FIG. 4): potentiate the increase
- cGMP EC200 (medium spiny neurons [5]; SNAP-stimulated medium spiny neurons, 6 DIV): 71.1 ± 9.9 µM
- change in cGMP level in the absence of a stimulus (medium spiny neurons [5]; no stimulus): no detectable change
- rank order of efficacy in increasing CREB phosphorylation (medium spiny neurons [6]): forskolin>selective PDE 10 inhibitor>rolipram
- CREB phosphorylation (medium spiny neurons [6]; compound without other stimuli): increased CREB phosphorylation

SMILES: CC(C)Cn1c(=O)n(C)c(=O)c2[nH]cnc21 [IBMX]
- cAMP EC200 [3]: 30 μM and 30.2 (2) μM
- cAMP/cGMP (ratio of EC200 values) [3]: 1.5
- cGMP EC200 [4]: 19 μM and 19.5 (1) μM

SMILES: COc1ccc(Cc2nccc3cc(OC)c(OC)cc23)cc1OC [Papaverine, 1-[(3,4-dimethoxyphenyl)methyl]-6,7-dimethoxyisoquinoline]
- change in basal level of cAMP [7]: did not produce measurable changes
- cAMP EC200 [3]: 38.3 ± 11.4 (4) μM
- cGMP EC200 [4]: 11.7 μM and 11.7 ± 8.2 (4) μM
- maximal elevation of cGMP over cultures stimulated with SNP alone ([4]; at 100 μM): 5 fold
- locomotor activity, compound alone (Sprague-Dawley rats; 32 mg/kg, i.p., 60 min): small decrease in locomotor activity
- amphetamine stimulated locomotion, second experiment (Sprague-Dawley rats; amphetamine 1 mg/kg s.c., 30 minutes): effectively inhibited
- locomotor activity stimulated by phencyclidine (Sprague-Dawley rats; papaverine 32 mg/kg i.p., PCP […] i.p., 60 min): significant reduction in the locomotor activity
- locomotor activity stimulated by amphetamine (Sprague-Dawley rats; papaverine 32 mg/kg i.p., amphetamine 1 mg/kg i.p., 60 min): without effecting
- IC50 (PDE11): 11 µM
- change in basal level of cGMP [8]: did not produce measurable changes
- IC50 (PDE9): 400 µM
- IC50 (PDE10): 0.018 µM
- catalepsy when administered alone (male CD rats): did not alone induce catalepsy
- minimum effective dose for potentiation of haloperidol-induced catalepsy (male CD rats; haloperidol […]): 3.2 mg/kg
- IC50 (PDE7): 27 µM
- IC50 (PDE1): 37 µM

SMILES: CCCOc1ccccc1-c1nc2nn[nH]c2c(=O)[nH]1 [Zaprinast]
- cAMP EC200 [3]: >100 (3) μM
- cAMP/cGMP (ratio of EC200 values) [3]: 1
- cGMP EC200 [4]: 98.3 ± 10.3 (3) μM
